Experimental data published in US8877773B2, “Methods for treating chronic obstructive pulmonary disease” (Indiana University Research and Technology Corporation, priority 2009, dated 2014).
Entries after “also recorded” stand apart in the source; their conditions may differ.

Legend:
Format in all cases: in vivo, rat
FG-7142 treated rats = experiment: FG-7142-induced anxiety: open field, social interaction and elevated plus maze tests; details: Wistar rats; FG-7142 7.5 mg/kg ip, with or without SB334867 30 mg/kg ip
Method: All experiments were conducted on adult male Wistar rats (250-300 g) purchased from Harlan Laboratories (Indianapolis, Ind. USA) and were housed individually in plastic cages under standard environmental conditions (22° C.; 12/12 light/dark cycle; lights on at 7:00 A.M.) for 7-10 days prior to the surgical manipulations. Food and water were provided ad libitum.
The open-field arena covered an area of 90 cm×90 cm, with 40 cm high walls. The open-field arena was divided into a 6×6 grid of equally-sized squares using black tape (36 total squares) with 4 squares forming the centre; 12 squares forming the middle perimeter; and 20 squares forming the outer perimeter. The test started by placing a rat in the centre. The behavior of each rat in the open-field arena was recorded on video and scored afterwards by an observer blind to the experimental treatment of each rat. Time spent in each region of the open-field was recorded. In addition, locomotor activity was assessed by counting the number of times the rat's entire body (excluding tail) completely crossed into another square.
Following the OFT, the experimental rat was placed in an open field (0.9 m long×0.9 m wide with walls 0.3 m high) with an untreated novel partner rat. A video camera was fixed above the box, and all behavioral tests were videotaped. During the 5 min test the total amount of time the treated rat initiates interaction with the partner rat is recorded (sniffing, grooming etc.) as described previously. Videotaped sessions were scored at a later time by a SDF (blind to treatments) and a decrease in total interaction time was taken as an increase in “anxiety” like behavior.
Following the SI test, rats were place in the center area of the EPM where the two arms intersect. Unlike the SI test, the EPM measures many relevant anxiety related behaviors such as: no. of poke and full entries into and duration spent in closed versus open arm. […] Activity is measured using […] state of the art photobeams (16× beams and 16 Y beams) to provide the highest resolution system available (Automated EPM, Hamilton Kinder Scientific, San diego, CA).

c-Fos = c-Fos immunoreactive cell counts in brain regions after FG-7142 challenge; details: FG-7142 7.5 mg/kg ip after vehicle (veh/FG) or SB334867 30 mg/kg ip (SB/FG); 90 min
Method: Fifteen min after the FG-7142 injection, all rats were tested for anxiety behavior using a 5 min open field test (OFT); 5 min social interaction (SI) test; then a 5 min elevated plus maze (EPM) test. Ninety min following FG-7142 injections, rats were anaesthetized and then the brains were removed and processed for immunohistochemistry as described in detail in subsequent section.
Ninety min following the initiation of treatment, rats were anaesthetised with an overdose of sodium pentobarbital (40 mg, i.p.) then perfused transcardially with 0.05 M phosphate buffered saline (PBS; 250 ml), followed by 0.1 M sodium phosphate buffer (PB; 250 ml) containing 4% paraformaldehyde (PFA) and 3% sucrose. Brains were removed and post-fixed for 24 h in the same fixative, rinsed for 24 h in 0.1 M PB, then placed in cryoprotectant (30% sucrose in 0.1 M PB) for an additional 4-5 days. To maintain a consistent plane for coronal sections, brains were placed in a rat brain matrix (ASI instruments, Model No. RBM-4000C) and cut with a razor blade at the caudal border of the mammillary bodies. Brains were frozen in cooled liquid isopentane made by immersing a plastic vessel containing isopentane into a dewar flask containing liquid nitrogen. Serial coronal sections (30 μm) were cut using a cryostat and were immediately placed in cryoprotectant consisting of 27% ethylene glycol and 16% glycerol in 0.05 M PB to yield six alternate sets of sections. Sections were stored at −20° C. until immunohistochemical processing.
All brain sections were immunostained with the c-Fos primary antibody in a single immunohistochemical run, rather than in batches, with large volume incubations to limit variability in the quality of immunohistochemical staining among brain sections. However, the forebrain was immunostained for c-Fos in one run and the brainstem (i.e., midbrain, pons and medulla) in another. Immunostaining for c-Fos protein was accomplished using an affinity-purified primary antibody directed at c-Fos (rabbit anti-human c-Fos polyclonal affinity-purified antibody, Cat. no. sc-52, Santa Cruz Biotechnology, San Diego, Calif.; diluted 1:10,000). Free-floating sections were washed in 0.1 M PBS for 30 min, then incubated in 1% H2O2 in PBS for 20 min. Sections were then washed 10 min in PBS and 20 min in PBS with 0.3% Triton X-100 (PBST). Sections were then incubated 12-16 h in PBST with primary antibody solution at room temperature. After a 30 min wash in PBST, sections were incubated for 2 hr in biotinylated goat anti-rabbit IgG (Cat no. BA-1000, Vector Laboratories, Burlinghame, Calif.; diluted 1:500). Sections were washed again for 30 min in PBST then incubated 1.5 hr in an avidin-biotin-peroxidase complex provided in a standard Vector Elite kit (Cat no. PK-6100, Vector Laboratories, diluted 1:200). The peroxidase substrate for the chromogen reaction was Vector SG, which was prepared as recommended by the manufacturer (Cat. no. SK-4700, Vector Laboratories). The substrate reaction was run for 20 min for the forebrain. All sections were mounted on clean glass slides, dried overnight, dehydrated and mounted with coverslips using DPX mounting medium (BDH Laboratory Supplies, Poole, UK). All washes and incubations were done at room temperature in 12-well polystyrene plates with low frequency shaking on an orbital shaker.
Selection of anatomical levels for analysis of c-Fos-immunostained cells was conducted with reference to illustrations from a rat brain stereotaxic atlas (Paxinos and Watson, 1997). Selection of anatomical levels was also done in reference to major anatomical landmarks including white matter tracts and the ventricular systems.

[1] = test system: panic-prone (1-AG treated) rats; experiment: Sodium lactate (NaLac) challenge in panic-prone (1-AG treated) rats: social interaction (SI) test; details: alprazolam 3 mg/kg; for anxiety-like responses (social interaction (SI) duration) after NaLac challenge: i.p. 30 min prior to NaLac, SB334867/SB408124 30 mg/kg, experiments 4 and 6
From the text: (§1) The minipump was then sutured into place subcutaneously at the nape of the neck. The concentration of the solutions was such that 3.5 nmol/[…] per hour of 1-AG or d-AG was infused continuously into the DMH/PeF region for the remainder of the given experiment. In the case of the siRNA experiments specialized T-cannulae were implanted permitting access to a removable 28 g injector to direct siRNA injections to the same location as the 1-AG infusions. Additionally these rats had guide cannulae directed to the opposite DMH/PeF for bilateral infusion of siRNA.
(§2) Rats received intravenous (i.v.) infusions (10 ml over 15 min of either 0.5M NaLac or 0.9% isotonic saline (when applicable)) using a syringe pump at least five days following the initiation of 1-AG or d-AG infusions. Once a stable baseline was achieved, i.v. infusions began and cardiovascular and activity data were recorded for 15 min (similar to clinical NaLac infusions).
Another SI test was performed 5 days following minipump infusions and immediately following saline or sodium lactate infusions.
In experiment 3, an RNAase free environment was maintained throughout the injection procedure and all injectors, syringes and tubing were exposed to RNaseZAP and rinsed thoroughly with RNA-free water prior to siRNA injections. […] 48 hrs after siORX or siCON treatment, these rats were exposed to saline or NaLac infusions (siCon/Sal n=4, siORX/Sal n=6, siCON/Lac n=5, siORX/Lac n=6) and SI behavioral and cardiovascular responses were recorded, and were then sacrificed by rapid decapitation, following a brief (30 s) exposure to IsoFlurane® 1 hr after the intravenous infusions.
In experiments 4-6, rats were made panic vulnerable with 1-AG. […] In experiment 5, baseline in an open field (OF) behavior test of anxiety was assessed (n=8) prior to 1-AG infusions. […] In experiment 7, control rats (no 1-AG or NaLac treatment) were assessed in a SI test. […]

[2] = test system: panic-prone (1-AG treated) rats; experiment: Sodium lactate (NaLac) challenge in panic-prone rats: radio-telemetry of locomotor and cardiovascular (HR, MAP) responses; details: i.p. 30 min prior to NaLac, SB334867/SB408124 30 mg/kg, alprazolam 3 mg/kg, experiments 4 and 6
Method: Telemetry probes (Data Science International, St. Paul Minn.) were surgically implanted into the abdomen of anaesthetize rats to measure locomotor responses. Cardiovascular responses were measured by a femoral arterial line connected to the telemetric probe which contained a pressure transducer (Data Science International, St. Paul Minn.).
as §1, §2
Cardiovascular responses (i.e., MAP and HR) were measured by a femoral arterial line connected to a telemetric probe which contained a pressure transducer (Cat. no. C50-PXT, Data Science International (DSI) St. Paul Minn.). […] MAP and HR were recorded continuously in freely moving conscious rats and are expressed as a 20 min time course. The data reported are changes in HR and MAP from the average of the baseline (t−5 to t−1) from each rat. […]
In experiments 4-6, rats were made panic vulnerable with 1-AG. 5 days after 1-AG onset, in a counterbalanced design, rats received intraperitoneal (i.p.) injections of treatment drug or vehicle 30 min prior to i.v. infusions. […] In experiment 5, baseline in an open field (OF) behavior test of anxiety was assessed (n=8) prior to 1-AG infusions. […] Immediately following the NaLac challenge, rats were placed in the OF test. […] In experiment 6,1-AG treated rats received an injection of an alternative ORX1 receptor antagonist (30 mg/kg SB408124 (N-(6,8-Difluoro-2-methyl-4-quinolinyl)-N′-(4-(dimethylamino)phenyl)urea), Tocris, in 0.2 ml/100 g volume DMSO, n=4) or vehicle (0.2 ml/100 g volume DMSO, n=6) 30 min prior to NaLac. In experiment 7, control rats (no 1-AG or NaLac treatment) were assessed in a SI test.
Adult male Sprague-Dawley rats were anesthetized and surgically implanted with telemetrical probes to measure cardiovascular activity prior to and during lactate infusions. After a 3 day recovery, rats were anaesthetized and had osmotic minipumps (previously filled with 1-AG) stereotaxically implanted unilaterally into the DMH. […] 1960, Tocris, in 0.2 ml/100 g volume DMSO, n=12], alprazolam (3 mg/kg, Sigma, in 0.2 ml/100 g volume DMSO, n=6) or vehicle (0.2 ml/100 g volume DMSO, n=11) 30 min prior lactate challenge.

## CNC(=O)c1cc2c(cn1)[nH]c1ccccc12 [FG-7142]
FG-7142 treated rats
  time in open arms of elevated plus maze: low open arm times
c-Fos
  Mean number of c-Fos immunoreactive cells, Amygdala (−2.56 mm bregma) BLA: 9 ± 4
  Mean number of c-Fos immunoreactive cells, Amygdala (−2.56 mm bregma) LA: 10 ± 4
  Mean number of c-Fos immunoreactive cells, Amygdala (−2.56 mm bregma) MeA: 85 ± 18
  Mean number of c-Fos immunoreactive cells, DRN (−7.80 mm bregma): 1 ± 0
  Mean number of c-Fos immunoreactive cells, ILC (+2.60 mm bregma): 12 ± 6
  Mean number of c-Fos immunoreactive cells, IPBN (−9.30 mm bregma): 9 ± 3
  Mean number of c-Fos immunoreactive cells, LC (−10.04 mm bregma): 48 ± 5
  Mean number of c-Fos immunoreactive cells, LSI (+0.20 mm bregma): 12 ± 4
  Mean number of c-Fos immunoreactive cells, PRL (+2.60 mm bregma): 3 ± 1
  Mean number of c-Fos immunoreactive cells, PeF (−3.14 mm bregma): 67 ± 23
  Mean number of c-Fos immunoreactive cells, mPBN (−9.30 mm bregma): 3 ± 1

## Cc1cc(NC(=O)Nc2ccc(N(C)C)cc2)c2cc(F)cc(F)c2n1 [SB408124, N-(6,8-Difluoro-2-methyl-4-quinolinyl)-N′-(4-(dimethylamino)phenyl)urea]
[1]
  anxiety-like responses (social interaction (SI) duration) after NaLac challenge: did not significantly alter
[2]
  NaLac induced increases in general locomotor activity: did attenuate; also recorded: attenuated
  NaLac induced increases in heart rate (HR): did attenuate; also recorded: attenuated
  NaLac induced increases in mean arterial blood pressure (MAP): did not significantly alter

## Cc1nnc2n1-c1ccc(Cl)cc1C(c1ccccc1)=NC2 [alprazolam]
[1]
  anxiety-like responses (social interaction (SI) duration) after NaLac challenge: attenuated
[1]; i.p. 30 min prior to lactate, SB334867 30 mg/kg
  all lactate induced panic-like responses (SI, Activity, HR, MAP): attenuated; also recorded: anti-panic effects
[2]
  NaLac induced increases in general locomotor activity: attenuated
  NaLac induced increases in heart rate (HR): attenuated
  NaLac induced increases in mean arterial blood pressure (MAP): attenuated
